Reference: BindingDB's records for doi:10.1021/jm00081a005 (University of Wisconsin-Madison, 1992)

Assay: Compound was tested for binding affinity towards cytosolic aminopeptidase

CC(=O)[C@@H](N)CC(C)C
Ki: > 600 µM
